According to US9540648B2, “Therapeutic use of activators of zinc finger protein GL13” (Universität Leipzig, priority 2012, dated 2017):

Key:
C57Bl/6-N hepatocytes [1] = test: Silencing of GLI family members by siRNA in hepatocytes, gene expression by qRT-PCR; assay type: cell-based, murine; details: for expression of lipogenic transcription factor Srebp1 (mRNA): FIG. 5
Source text: Total RNA from hepatocytes, liver tissue and other organs was extracted using TRIzol (Peqlab, Erlangen). Total RNA from adipose tissue was extracted using the RNeasy Lipid Tissue mini Kit (Quiagen, Hilden). RNA was reverse transcribed using oligo(dt) primers and IM Promm II reverse transcriptase (Promega). The resulting cDNA samples were then quantified for each test gene using target gene-specific primers designed using the online tools Universal ProbeLibrary Probe-Finder software, Perl Primer and Primer 3.
(§1) The levels of all mRNA transcripts were determined in duplicate by qRT-PCR using the Light Cycler® 2.0 Instrument and the LightCycler® FastStart DNA Master PLUS SYBR Green I (Roche). Using the standard curve method, the absolute quantitation of specific PCR products for each primer set was generated. For normalization, β-actin was amplified from each sample.
To analyze the role of GLI family members in C57Bl/6-N hepatocytes on gene expression, murine hepatocytes were isolated and cultured for 72 h upon transfection with siRNA silencing either GLI1, GLI2 or GLI3.
GLI1-, GLI2- and GLI3-specific siRNAs and respective scrambled control siRNAs were purchased from Invitrogen. The following double stranded siRNAs were used for inhibition of GLI1, GLI2 and GLI3:
(§2) Freshly isolated hepatocytes were seeded at a density of 100.000 cells per well of 12-well plates in normal culture medium containing 10% FCS. After 4 h, serum-free medium was used and chemically synthesized siRNAs ([…] for GLI2 and GLI3, 50 nM for GLI1) were transfected with Interferin from Peqlab (Erlangen) according to the manufacturer's instructions. Twenty-four hours after transfection, the medium was changed and fresh medium without siRNA was added. Changes in gene expression were analyzed by qRT PCR at different time points up to 72 h post-transfection as indicated in figure legends using primers as described above in Example 2 and the following additional primers: […]

C57Bl/6-N hepatocytes [2] = test: Oil red O staining of neutral lipids in cultured hepatocytes transfected with GLI siRNA; assay type: cell-based, murine; details: 72 h after siRNA transfection, FIG. 8
Method: FIG. 8 Staining of neutral lipids by Oil red O in cultured hepatocytes transfected with a) mock, b) GLI1 siRNA, c) GLI2 siRNA and d) GLI3 siRNA determined after 72 h.
as §2
On the contrary neither GLI1 siRNA (FIG. 8b) nor GLI2 siRNA (FIG. 8c) was capable of mediating this effect.

[3] = test system: murine C57BL/6-N hepatocytes; test: Silencing of Sufu by siRNA in hepatocytes, gene expression by real time PCR; assay type: cell-based
Method: as §1, §2
Sufu is a known inhibitor of hedgehog signalling. The transfection of hepatocytes with siRNA and real time PCR was performed as described in Example 3. The following additional primers were used: […]

mouse hepatocytes = test: Cyclopamine: accumulation of neutral lipids in cultured mouse hepatocytes (Nile red staining); assay type: cell-based; details: 10 μM cyclopamine, 72 h
Method: (§3) Cyclopamine (Sigma) was dissolved in DMSO (10 mM). Mouse and human hepatocytes were incubated for 72 h in the presence of 10 μM Cyclopamine. Control cultures were incubated with culture medium containing vehicle (0.1% DMSO).
(§4) Fluorescent staining of neutral lipids in hepatocytes was performed using Nile red (Biomol). Hepatocytes were fixed with 4% buffered paraformaldehyde for 10 min. For Nile red staining, a 200 nM working solution in phosphate-buffered saline (PBS) was prepared from a 1 mM stock solution in DMSO and was added directly to the fixed cells. After 20 min of incubation at room temperature cells were washed in PBS. Nuclei were counterstained with DAPI (Sigma).
(§5) Primary hepatocytes from SLC mice were isolated by collagenase perfusion of the liver. Cell suspension was carefully cleared from non-parenchymal cells by differential centrifugation. Finally, hepatocytes were suspended in Williams Medium E containing 10% fetal calf serum and further additions as described (Klingmüller et al., 2006), and were plated onto 6-well or 12-well plates precoated with collagen type I (Klingmüller et al., 2006; Gebhardt et al., 1982). After 4 h, serum-free medium was used throughout cultivation. Cryopreserved human hepatocytes were purchased from TebuBio (Offenbach, Germany). […]

human hepatocytes = test: Cyclopamine: accumulation of neutral lipids in cultured human hepatocytes (Nile red staining); assay type: cell-based; details: 10 μM cyclopamine, 72 h
Method: as §3, §4, §5

GLI2 siRNA: double stranded siRNA for inhibition of GLI2, SEQ ID No. 3 and 4, purchased from Invitrogen (chain 1 CCACAACCACAACGUUGCUCAGACA; chain 2 UGUCUGAGCAAGCUUGUGGUUGUGG; listed as RNA, chemistry not given here)
expression of lipogenic transcription factor Srebp1 (mRNA) (C57Bl/6-N hepatocytes [1]; siRNA vs nonsense RNA control): not
accumulation of fat droplets (Oil red O staining of neutral lipids) (C57Bl/6-N hepatocytes [2]): comparable phenotype as wild type hepatocytes

Sufu siRNA: double stranded siRNA inhibiting Sufu, SEQ ID No. 7 and 8; preferred GLI3 activating siRNA (chain 1 CCCUUGGACUAUGUUAGCAUGUACA; chain 2 UGUACAUGCUAACAUAGUCCAAGGG; listed as RNA, chemistry not given here)
expression of GLI2 ([3]; FIG. 9): increased expression
expression of GLI3 ([3]; FIG. 9): increased expression
expression of Indian hedgehog (IHH) ([3]; FIG. 9): increased expression
silencing of Sufu ([3]; FIG. 9): Successful silencing
expression of GATA4 ([3]; FIG. 10): increased expression
hepatocellular expression of PPAR-γ ([3]; FIG. 10): reduced
hepatocellular expression of Srebp1 ([3]; FIG. 10): reduced
expression of Cyp17A1 ([3]; FIG. 19): decreased expression

GLI3 siRNA: double stranded siRNA for inhibition of GLI3, SEQ ID No. 5 and 6, purchased from Invitrogen (chain 1 UAGCAAGGCCAUCUUGGUCUUCAGG; chain 2 CCUGAAGACCAAGAUGGCCUUGCUA; listed as RNA, chemistry not given here)
IGF1 mRNA (C57Bl/6-N hepatocytes [1]; Gli siRNA, FIG. 23A): downregulates
IGFBP1 mRNA (C57Bl/6-N hepatocytes [1]; Gli siRNA, FIG. 23B): upregulated
expression of lipogenic transcription factor PPAR-γ (mRNA) (C57Bl/6-N hepatocytes [1]; siRNA vs nonsense RNA control, FIG. 4): significantly increased
expression of lipogenic transcription factor Srebp1 (mRNA) (C57Bl/6-N hepatocytes [1]; siRNA vs nonsense RNA control): significantly increased
expression of lipogenic enzyme ELOVL fatty acid elongase 6 (Elovl6) (C57Bl/6-N hepatocytes [1]; siRNA vs nonsense RNA control, FIG. 6): increased expression
expression of lipogenic enzyme fatty acid synthase (Fasn) (C57Bl/6-N hepatocytes [1]; siRNA vs nonsense RNA control, FIG. 7): increased expression
accumulation of fat droplets (Oil red O staining of neutral lipids) (C57Bl/6-N hepatocytes [2]): pronounced accumulation of fat droplets

CC1=C2C[C@H]3[C@@H](CC=C4C[C@@H](O)CC[C@@]43C)[C@@H]2CC[C@]12O[C@@H]1C[C@H](C)CN[C@H]1[C@H]2C [cyclopamine, Cyclopamine]
steatosis (accumulation of neutral lipids) (mouse hepatocytes): marked steatosis
steatosis (accumulation of neutral lipids) (human hepatocytes): marked steatosis

GLI1 siRNA: double stranded siRNA for inhibition of GLI1, SEQ ID No. 1 and 2, purchased from Invitrogen (chain 1 UGGAGAACCUUAGGCUGGAUCAGCU; chain 2 AGCUGAUCCAGCCUAAGGUUCUCCA; listed as RNA, chemistry not given here)
expression of lipogenic transcription factor Srebp1 (mRNA) (C57Bl/6-N hepatocytes [1]; siRNA vs nonsense RNA control): not
accumulation of fat droplets (Oil red O staining of neutral lipids) (C57Bl/6-N hepatocytes [2]): comparable phenotype as wild type hepatocytes
